Experimental data: patent publication US10206904B2, “Licofelone derivatives and methods of use” (The Board of Regents of the University of Oklahoma, priority 2015, dated 2019)
“Also recorded” adds a separate entry of the source. Where two headings read alike, the source gives them in different places.

Settings: for Major Organ Toxicity / Liver enzymes ALKP / Liver enzymes ALT / Liver enzymes AST / Liver enzymes LDH / Ulceration (Grade) Colon / Ulceration (Grade) Small Intestine / Ulceration (Grade) Stomach: 6 weeks, male C57 mice; for Liver enzymes ALKP / Liver enzymes ALT / Liver enzymes AST / Liver enzymes LDH: Mean ± SEM
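Further: gross examination of all organs at necropsy, with liver enzyme profile and GI ulceration assessed in collected tissues and blood.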

Procedure: Body weights and symptoms of toxicity were recorded twice weekly for 6 weeks. […] All organs were examined grossly for any abnormalities upon necropsy. Livers, kidney, stomach, intestinal tract, and blood were obtained from the animals and analyzed for Liver enzyme profile, GI ulceration, and levels of test agents.
All animals found dead will be necropsied to confirm that the most likely cause of death was due to intestinal ulcerations.

CCCCCCC(Sc1nc(Cl)cc(Nc2cccc(C)c2C)n1)C(=O)O (stereo not shown) [YS-121, reference compound]
Major Organ Toxicity (25 ppm in diet): None | Liver enzymes ALKP (25 ppm in diet): 183 ± 24 units/L | Liver enzymes ALT (25 ppm in diet): 81 ± 11 units/L | Liver enzymes AST (25 ppm in diet): 77 ± 8.6 units/L | Liver enzymes LDH (25 ppm in diet): 388 ± 29 units/L | Major Organ Toxicity (50 ppm in diet): None | Liver enzymes ALKP (50 ppm in diet): 198 ± 33 units/L | Liver enzymes ALT (50 ppm in diet): 96 ± 14 units/L | Liver enzymes AST (50 ppm in diet): 90 ± 7.8 units/L | Liver enzymes LDH (50 ppm in diet): 451 ± 38 units/L | toxicity (75 ppm and above dose levels in diet, mice): significant toxicity | Major Organ Toxicity (75 ppm in diet): Liver | Liver enzymes ALKP (75 ppm in diet): 358 ± 47 units/L | Liver enzymes ALT (75 ppm in diet): 147 ± 17 units/L | Liver enzymes AST (75 ppm in diet): 118 ± 18 units/L | Liver enzymes LDH (75 ppm in diet): 540 ± 51 units/L | Major Organ Toxicity (100 ppm in diet): Liver* | Ulceration (Grade) Colon (100 ppm in diet): Grade: 0, 1 | Ulceration (Grade) Small Intestine (100 ppm in diet): Grade: 1 | Ulceration (Grade) Stomach (100 ppm in diet): Grade: 2-3 | Liver enzymes ALKP (100 ppm in diet): 477 ± 51 units/L | Liver enzymes ALT (100 ppm in diet): 194 ± 23 units/L | Liver enzymes AST (100 ppm in diet): 169 ± 29 units/L | Liver enzymes LDH (100 ppm in diet): 883 ± 68 units/L | Major Organ Toxicity (200 ppm in diet): Liver**; also recorded: Stomach | Ulceration (Grade) Colon (200 ppm in diet): Grade: 2 | Ulceration (Grade) Small Intestine (200 ppm in diet): Grade: 4 | Ulceration (Grade) Stomach (200 ppm in diet): Grade: 5
